Tests used:
methanogens = assay: Fermentation of methyl alcohol in rumen fluid; format: cell-based, cow; conditions: MeOH added to rumen fluid with or without vitamin K1
Protocol: The MeOH was added in equal volumes to tubes containing rumen fluid with (E) or without (C) the addition of vitamin K1. The results are shown as symbols on the Y-axis in FIG. 13, according to one or more embodiments.

cow rumen fluid = assay: SIFT-MS analysis of gas from grass fermentations by cow rumen fluid; format: cell-based
Excerpt: A SIFT-MS analyser was further used to confirm the above noted effects in terms of reductions in methane. A SIFT-MS device (see https://syft.com/sift-ms-technology/) is an advanced method for analysing mixtures of smaller volatile organic compounds.

cow pats (faeces) = assay: Fermentation of cow pats from cows drenched with vitamin K1; format: in vivo; conditions: FIG. 9; no vitamin K1 added to the cow pats
Protocol: The cows in both fields were of the same breed and provenance.
The resulting cow pat samples were fermented using the apparatus described in Example 1 and FIG. 1 and gas produced collected and tested. Vitamin K1 was not added to the cow pats.
An qualitative test was also completed where the smell of the gases in the fermentation chambers were assessed at the end of fermentation.

pig faeces = assay: Fermentation of diluted pig faeces; format: cell-based; conditions: 1% steep fluid
Protocol: Fresh pig faeces samples were mixed with an equal volume of distilled water.
Six 50 ml fermentation tubes were used in the fermentation experiment.
The controls were […] fermentation tubes filled to the top with diluted pig faeces.
The fermentation tubes were gently agitated in a water bath held in the dark at 36° C.

[1] = tested on: rumen fluid from live cows; assay: Fermentation of dried grass with rumen fluid from fistulated cows that drank dilute vitamin K1 solution; format: in vivo, cow; conditions: drinking water, 100 ml of tincture to 20 litres of water
Excerpt: The collected rumen fluid was then fermented with dried grass in the fermenter described in Example 1 and FIG. 1.

## CC1=C(C/C=C(\C)CCC[C@H](C)CCC[C@H](C)CCCC(C)C)C(=O)c2ccccc2C1=O [vitamin K1]
methanogens
  fermentation of MeOH by methanogens: strongly inhibits
Cow rumen fluid
  reduction in methane compared with controls: 83.6%
  reduction in total volume compared with controls: 56.8%
Cow pats (faeces)
  vitamin K1 effect on gas production carried through to faeces: still active in the faeces
Pig faeces
  emission of methane gas from faeces: completely inhibited
[1]
  reduction in carbon dioxide production: approximately 29%
  reduction in methane production: approximately 20%
  reduction in total gas production: approximately 25%

Reference: patent US12263140B1, “Methods of reducing the production of greenhouse gases from animals” (AGRICULTURAL SCIENCES LIMITED, priority 2023, dated 2025)
